The values that follow come from ChEMBL document CHEMBL1201862, “PubChem BioAssay data set” (2004).

What is called EC50 is the concentration at which the effect is half-maximal.

Each structure is given as a SMILES string. The source made the active and inactive calls.

A short description of assay [1]: NIH-3T3 fibroblast cytotoxicity, dose response, cytotoxicity control, cell-based, fluorescence, Alamar Blue, secondary assay (AID 2327).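 Further: NIH-3T3 mouse fibroblasts cultured with fluconazole at 8 µg/mL.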 It counts as functional.
Assay [2] addresses T1, RNA-binding protein pos-1 (Caenorhabditis elegans, UniProt G5EF15).
T1 sequence (G5EF15 whole entry): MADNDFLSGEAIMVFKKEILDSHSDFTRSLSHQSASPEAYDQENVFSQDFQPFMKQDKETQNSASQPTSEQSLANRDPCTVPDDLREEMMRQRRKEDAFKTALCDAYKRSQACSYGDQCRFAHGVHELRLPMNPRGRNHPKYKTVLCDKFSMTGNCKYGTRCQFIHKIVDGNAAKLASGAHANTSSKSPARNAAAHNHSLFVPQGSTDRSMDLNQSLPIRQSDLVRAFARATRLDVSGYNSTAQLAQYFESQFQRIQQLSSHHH
The assay can be described thus: disruptors of C. elegans POS-1 RNA interaction – biochemical, fluorescence polarization, dose response (AID 1964).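 Further: purified POS-1 fused to maltose binding protein made in E. coli; potency of compounds blocking POS-1 binding to fluorescent RNA.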

The nature of assay [3]: Counterscreen for AddAB inhibitors: absorbance-based bacterial cell-based high throughput dose response assay for inhibitors of bacterial viability. [Related pubchem assays (depositor defined):AID435030, AID449728, AID449731, AID488942, AID488955, AID488956]. The format is functional. (Counterscreens check selectivity or assay interference.)
The target in assay [4] is Polyadenylate-binding protein 1 (Homo sapiens, UniProt P11940). The assay can be described thus: MLLE binding blockers, Cy5 peptide tracer – biochemical, fluorescence polarization, Cy5-PAM2 peptide, secondary, miRNA deadenylation inhibitor project, dose response (AID 602260). As to conditions: read-out: IC50_Mean. It counts as functional. Background: Polarisation of emitted light reports the rotation of a fluorescent probe.
Sequence of Polyadenylate-binding protein 1 (P11940 whole entry): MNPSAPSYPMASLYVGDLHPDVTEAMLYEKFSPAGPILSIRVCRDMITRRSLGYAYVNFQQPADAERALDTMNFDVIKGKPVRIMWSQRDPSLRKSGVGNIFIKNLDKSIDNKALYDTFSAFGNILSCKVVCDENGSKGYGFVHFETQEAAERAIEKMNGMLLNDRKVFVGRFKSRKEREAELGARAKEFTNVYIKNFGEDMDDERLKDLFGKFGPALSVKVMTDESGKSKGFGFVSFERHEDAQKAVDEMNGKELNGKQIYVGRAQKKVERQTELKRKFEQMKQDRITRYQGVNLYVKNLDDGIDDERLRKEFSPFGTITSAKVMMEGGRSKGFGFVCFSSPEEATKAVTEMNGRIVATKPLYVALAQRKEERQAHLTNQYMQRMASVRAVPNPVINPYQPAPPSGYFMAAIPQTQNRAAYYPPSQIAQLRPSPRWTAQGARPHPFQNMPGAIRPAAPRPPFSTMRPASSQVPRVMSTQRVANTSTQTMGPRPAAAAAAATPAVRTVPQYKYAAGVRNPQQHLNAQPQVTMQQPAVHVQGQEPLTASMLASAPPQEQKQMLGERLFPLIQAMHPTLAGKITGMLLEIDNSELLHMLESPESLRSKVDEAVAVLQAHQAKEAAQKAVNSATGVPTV

Regarding `CN1CCc2cc3c(c4c2[C@H]1[C@H](O)c1ccccc1-4)OCO3`, the EC50 is 75.6 µM (active) in assay [1] and 11.9 µM (active) in assay [2]. In addition, the IC50 in assay [3] is > 119 µM (inactive); in assay [4], > 66 µM (inactive).
